In ChEMBL document CHEMBL5316293, “Novel Small-Molecule PD-L1 Inhibitor Induces PD-L1 Internalization and Optimizes the Immune Microenvironment” (J Med Chem, 2023):
Activity calls are given as the source filed them. The calls are words filed in the database; no cut-off is given here.

Key:
[1] = target: Programmed cell death protein 1/Programmed cell death 1 ligand 1 (Homo sapiens, UniProt Q9NZQ7); assay: Inhibition of europium-labeled PD-1/biotinylated PD-L1 interaction (unknown origin) preincubated for 15 mins with PD-L1 followed by PD-1 addition and measured after 90 mins by TR-FRET assay; type: protein-complex assay
Chain of Programmed cell death protein 1/Programmed cell death 1 ligand 1 (Q15116 whole entry): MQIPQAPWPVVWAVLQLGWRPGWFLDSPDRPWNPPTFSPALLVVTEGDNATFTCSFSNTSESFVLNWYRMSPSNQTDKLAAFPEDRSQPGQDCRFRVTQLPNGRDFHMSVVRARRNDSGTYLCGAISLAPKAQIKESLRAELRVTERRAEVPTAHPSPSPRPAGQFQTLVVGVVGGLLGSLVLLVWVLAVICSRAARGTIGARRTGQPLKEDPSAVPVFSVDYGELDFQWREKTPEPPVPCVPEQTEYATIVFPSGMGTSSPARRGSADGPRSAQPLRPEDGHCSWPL
Chain of Programmed cell death protein 1/Programmed cell death 1 ligand 1 (Q9NZQ7 whole entry): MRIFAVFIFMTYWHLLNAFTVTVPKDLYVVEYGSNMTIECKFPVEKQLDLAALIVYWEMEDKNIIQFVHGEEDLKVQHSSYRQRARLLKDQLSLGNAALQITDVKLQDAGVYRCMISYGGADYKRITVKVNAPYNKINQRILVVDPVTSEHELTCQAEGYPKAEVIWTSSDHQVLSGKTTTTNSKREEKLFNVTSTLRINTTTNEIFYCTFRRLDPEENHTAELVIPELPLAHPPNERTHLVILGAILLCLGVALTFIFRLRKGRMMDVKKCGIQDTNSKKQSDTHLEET

[2] = target: Programmed cell death 1 ligand 1 (Homo sapiens, UniProt Q9NZQ7); assay: Binding affinity to human PD-L1 assessed as dissociation constant by MST analysis
Chain of Programmed cell death 1 ligand 1 (Q9NZQ7 whole entry): as above

[3] = Toxicity in hPD-1 knockin C57BL/6 mouse implanted with humanized mouse MC38-hPD-L1 cells assessed as reduction in body weight at 10 to 25 mg/kg, ip administered for 12 days starting from day 7 post tumor implantation and measured every 3 to 4 days; type: organism-based; conditions: in vivo, 288 h, dose 10-25 mg/kg, time 12 day
Homo sapiens [4] = species on record: Homo sapiens; assay: Internalization of PD-L1 in cytoplasm of human RKO cells assessed as increase in PD-L1 concentration in cytoplasm at 1 micromol/L incubated for 6 hrs by fluorescence microscopy; type: functional, cell-based; conditions: dose 1.0 µmol/L
MC38-hPD-L1 [5] = assay: Antitumor activity against humanized mouse MC38-hPD-L1 cells implanted in BALB/c nude mouse assessed as reduction in tumor growth at 10 to 25 mg/kg, ip administered for 10 days starting from day 6 post tumor implantation and measured every 2 days; type: functional, organism-based; conditions: dose 10-25 mg/kg, time 10.0 day
MC38-hPD-L1 [6] = assay: Antitumor activity against humanized mouse MC38-hPD-L1 cells implanted in hPD-1 knockin C57BL/6 mouse assessed as increase in M1 macrophages at 10 to 25 mg/kg, ip administered for 12 days starting from day 7 post tumor implantation by flow cytometry analysis; type: functional, organism-based; conditions: dose 10-25 mg/kg, time 12.0 day
MC38-hPD-L1 [7] = assay: (§1) Antitumor activity against humanized mouse MC38-hPD-L1 cells implanted in hPD-1 knockin C57BL/6 mouse assessed as increase in GzmB level at 10 to 25 mg/kg, ip administered for 12 days starting from day 7 post tumor implantation by flow cytometry analysis; type: functional, organism-based; conditions: dose 10-25 mg/kg, time 12.0 day
[8] = Toxicity in ICR mouse assessed as acute side effects at 500 to 5000 mg/kg, po administered via gavage for 2 weeks; type: organism-based; conditions: in vivo, 336 h, dose 500-5000 mg/kg
MC38-hPD-L1 [9] = assay: Antitumor activity against humanized mouse MC38-hPD-L1 cells implanted in hPD-1 knockin C57BL/6 mouse assessed as increase in CD8-positive T cells at 10 to 25 mg/kg, ip administered for 12 days starting from day 7 post tumor implantation by flow cytometry analysis; type: functional, organism-based; conditions: dose 10-25 mg/kg, time 12.0 day
MC38-hPD-L1 [10] = assay: (§2) Antitumor activity against humanized mouse MC38-hPD-L1 cells implanted in hPD-1 knockin C57BL/6 mouse assessed as reduction in MDSC cells at 10 to 25 mg/kg, ip administered for 12 days starting from day 7 post tumor implantation by flow cytometry analysis; type: functional, organism-based; conditions: dose 10-25 mg/kg, time 12.0 day
MC38-hPD-L1 [11] = assay: as §2, with “tumor cell proliferation by measuring reduction in Ki67 expression” for “MDSC cells”, “immunohistochemistry” for “flow cytometry”; type: functional, organism-based; conditions: dose 10-25 mg/kg, time 12.0 day
LLC-hPD-L1 [12] = assay: Antitumor activity against humanized mouse LLC-hPD-L1 cells implanted in hPD-1 knockin C57BL/6 mouse assessed as reduction in tumor cell proliferation by measuring reduction in Ki67 expression administered intraperitoneally for 12 days starting from day 7 post tumor implantation by immunohistochemistry analysis; type: functional, cell-based; conditions: dose 10-25 mg/kg, route ip, time 12.0 day
[13] = Toxicity in ICR mouse assessed as animal death at 5000 mg/kg, po administered via gavage for 2 weeks; type: organism-based; conditions: in vivo, 336 h
[14] = Toxicity in ICR mouse assessed as reduction in liver weight at 500 to 5000 mg/kg, po administered via gavage for 2 weeks; type: organism-based; conditions: in vivo, 336 h, dose 500-5000 mg/kg
[15] = Antitumor activity against humanized mouse LLC-hPD-L1 cells implanted in hPD-1 knockin C57BL/6 mouse assessed as tumor growth inhibition at 10 mg/kg, ip administered for 12 days starting from day 7 post tumor implantation and measured every 2 days relative to control; type: functional; conditions: LLC-hPD-L1, 288 h, time 12 day, read-out: TGI
LLC-hPD-L1 [16] = assay: Antitumor activity against humanized mouse LLC-hPD-L1 cells implanted in hPD-1 knockin C57BL/6 mouse assessed as increase in M1 macrophages at 10 to 25 mg/kg, ip administered for 12 days starting from day 7 post tumor implantation by flow cytometry analysis; type: functional, organism-based; conditions: dose 10-25 mg/kg, time 12.0 day
MC38-hPD-L1 [17] = assay: Antitumor activity against humanized mouse MC38-hPD-L1 cells implanted in hPD-1 knockin C57BL/6 mouse assessed as macrophage polarization into M1 phenotype at 25 mg/kg, ip administered for 12 days starting from day 7 post tumor implantation by flow cytometry analysis; type: functional, organism-based; conditions: time 12.0 day
Homo sapiens [18] = species on record: Homo sapiens; assay: Internalization of PD-L1 in cytoplasm of human RKO cells assessed as decrease in PD-L1 concentration in cell membrane at 1 micromol/L incubated for 6 hrs by fluorescence microscopy; type: functional, cell-based; conditions: dose 1.0 µmol/L
[19] = Toxicity in hPD-1 knockin C57BL/6 mouse implanted with humanized mouse LLC-hPD-L1 cells assessed as reduction in body weight at 10 to 25 mg/kg, ip administered for 12 days starting from day 7 post tumor implantation and measured every 3 to 4 days; type: organism-based; conditions: in vivo, 288 h, dose 10-25 mg/kg, time 12 day
MC38-hPD-L1 [20] = assay: as §1, with “tumor cell apoptosis by measuring increase in cleaved caspase-3” for “GzmB”, “immunohistochemistry” for “flow cytometry”; type: functional, organism-based; conditions: dose 10-25 mg/kg, time 12.0 day
[21] = Cmax in ICR mouse at 5 mg/kg, iv; type: ADME, organism-based; parameters: dose 5 mg/kg, route iv; conditions: in vivo
[22] = Antitumor activity against humanized mouse LLC-hPD-L1 cells implanted in hPD-1 knockin C57BL/6 mouse assessed as tumor growth inhibition at 25 mg/kg, ip administered for 12 days starting from day 7 post tumor implantation and measured every 2 days relative to control; type: functional; conditions: LLC-hPD-L1, 288 h, time 12 day, read-out: TGI
[23] = target: Programmed cell death protein 1/Programmed cell death 1 ligand 1 (Homo sapiens) (UniProt Q15116+Q9NZQ7); assay: Inhibition of PD-1/PD-L1 interaction in human A549 cells harboring low level PD-L1 expression assessed as increase in transcriptional-mediated bioluminescent signal preincubated with compound followed by washout and further cultured with Jurkat cells transfected with NFAT luciferase by bio-glo reagent based assay; type: cell-based; conditions: dose 50-200 nM

**Q.** For `COc1cc2c(cc1CN[C@@H](CO)C(=O)O)C(=O)N(c1cccc(-c3ccccc3)c1C)C2=O`, which IC50 [1] is on record?
**A.** 6.1 nM

**Q.** And the Kd [2]?
**A.** 71.4 nM

**Q.** What about the Activity [3] of the same compound?
**A.** Non-Toxic

**Q.** What about the Activity (Homo sapiens [4]) of the same compound?
**A.** Active

**Q.** What about the Activity (MC38-hPD-L1 [5]) of the same compound?
**A.** inactive

**Q.** What about the Activity (MC38-hPD-L1 [6]) of the same compound?
**A.** Active

**Q.** And the Activity (MC38-hPD-L1 [7])?
**A.** Active

**Q.** And the Activity [8]?
**A.** Non-Toxic

**Q.** What about the Activity (MC38-hPD-L1 [9]) of the same compound?
**A.** Active

**Q.** What about the Activity (MC38-hPD-L1 [10]) of the same compound?
**A.** Active

**Q.** And the Activity (MC38-hPD-L1 [11])?
**A.** Active

**Q.** What about the Activity (LLC-hPD-L1 [12]) of the same compound?
**A.** Dose-Dependent Effect

**Q.** And the Activity [13]?
**A.** Non-Toxic

**Q.** And the Activity [14]?
**A.** Non-Toxic

**Q.** What about the inhibition in vivo at 10 mg/kg [15] of the same compound?
**A.** 57.2%

**Q.** And the Activity (LLC-hPD-L1 [16])?
**A.** Active

**Q.** What about the Activity (MC38-hPD-L1 [17]) of the same compound?
**A.** Active

**Q.** What about the Activity (Homo sapiens [18]) of the same compound?
**A.** Active

**Q.** And the Activity [19]?
**A.** Non-Toxic

**Q.** And the Activity (MC38-hPD-L1 [20])?
**A.** Active

**Q.** And the Cmax [21]?
**A.** 6290 ng/mL

**Q.** What about the inhibition in vivo at 25 mg/kg [22] of the same compound?
**A.** 81.4%

**Q.** What about the inhibition [23] of the same compound?
**A.** Dose-Dependent Effect
